Source: US20220119354A1, “DIAMINO-SUBSTITUTED PYRIDINES AND PYRIMIDINES AS HERBICIDES” (FMC Corporation, priority 2019, published 2022)

What was measured:
Format in all cases: in vivo
[1] = tested on: ducksalad (Heteranthera limosa); experiment: Test B flooded paddy test, ducksalad; conditions: Flood, 250 g ai/ha, applied to paddy water, 2-leaf stage, visual evaluation after 13 to 15 d
Summary of the method: (§1)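 Rating: 0 = no effect, 100 = complete control, visual, relative to untreated plants. Conditions: 2-leaf stage, 3 cm flood kept constant, compound put directly into water, 13–15 d greenhouse.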

[2] = tested on: ryegrass, Italian (Lolium multiflorum); experiment: Test A postemergence, Italian ryegrass; conditions: 0 to 100 scale
Summary of the method: (§2)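 Visual injury scored against untreated controls about 10 d after treatment, scale 0 = no effect to 100 = complete control. Compounds, formulated with surfactant in a non-phytotoxic solvent, went on as directed soil spray preemergence or onto 2–10 cm, one- to two-leaf plants postemergence; loam–sand soil, greenhouse.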

[3] = tested on: wheat (Triticum aestivum); experiment: Test A postemergence, wheat; conditions: 0 to 100 scale
Summary of the method: as §2

[4] = tested on: foxtail, giant (Setaria faberii); experiment: Test A preemergence, giant foxtail; conditions: 0 to 100 scale
Summary of the method: as §2

[5] = tested on: ragweed (common ragweed, Ambrosia elatior); experiment: Test A postemergence, ragweed; conditions: 0 to 100 scale
Summary of the method: as §2

[6] = tested on: sedge, umbrella (small-flower umbrella sedge, Cyperus difformis); experiment: Test B flooded paddy test, umbrella sedge; conditions: Flood, 250 g ai/ha, applied to paddy water, 2-leaf stage, visual evaluation after 13 to 15 d
Summary of the method: as §1

kochia (Kochia scoparia) [7] = experiment: Test A postemergence, kochia; conditions: 0 to 100 scale
Summary of the method: as §2

[8] = tested on: ryegrass, Italian (Lolium multiflorum); experiment: Test A preemergence, Italian ryegrass; conditions: 0 to 100 scale
Summary of the method: as §2

kochia (Kochia scoparia) [9] = experiment: Test A preemergence, kochia; conditions: 0 to 100 scale
Summary of the method: as §2

[10] = tested on: blackgrass (Alopecurus myosuroides); experiment: Test A postemergence, blackgrass; conditions: 0 to 100 scale
Summary of the method: as §2

[11] = tested on: pigweed (Amaranthus retroflexus); experiment: Test A postemergence, pigweed; conditions: 0 to 100 scale
Summary of the method: as §2

corn (Zea mays) = experiment: Test A postemergence, corn; conditions: 0 to 100 scale
Summary of the method: as §2

[12] = tested on: galium (catchweed bedstraw, Galium aparine); experiment: Test A postemergence, galium; conditions: 0 to 100 scale
Summary of the method: as §2

[13] = tested on: pigweed (Amaranthus retroflexus); experiment: Test A preemergence, pigweed; conditions: 0 to 100 scale
Summary of the method: as §2

[14] = tested on: barnyardgrass (Echinochloa crus-galli); experiment: Test B flooded paddy test, barnyardgrass; conditions: Flood, 250 g ai/ha, applied to paddy water, 2-leaf stage, visual evaluation after 13 to 15 d
Summary of the method: as §1

[15] = tested on: barnyardgrass (Echinochloa crus-galli); experiment: Test A postemergence, barnyardgrass; conditions: 0 to 100 scale
Summary of the method: as §2

[16] = tested on: ragweed (common ragweed, Ambrosia elatior); experiment: Test A preemergence, ragweed; conditions: 0 to 100 scale
Summary of the method: as §2

[17] = tested on: foxtail, giant (Setaria faberii); experiment: Test A postemergence, giant foxtail; conditions: 0 to 100 scale
Summary of the method: as §2

[18] = tested on: barnyardgrass (Echinochloa crus-galli); experiment: Test A preemergence, barnyardgrass; conditions: 0 to 100 scale
Summary of the method: as §2

rice (Oryza sativa) = experiment: Test B flooded paddy test, rice; conditions: Flood, 250 g ai/ha, applied to paddy water, 2-leaf stage, visual evaluation after 13 to 15 d
Summary of the method: as §1

Row | Structure (SMILES) | Plant response rating, Ducksalad (0 to 100 scale, 0 is no effect, 100 is complete control) [1] | Plant response rating, Ryegrass, Italian ([2]; 125 g ai/ha) | Plant response rating, Ryegrass, Italian ([2]; 500 g ai/ha) | Plant response rating, Wheat ([3]; 125 g ai/ha) | Plant response rating, Wheat ([3]; 500 g ai/ha) | Plant response rating, Foxtail, Giant ([4]; 125 g ai/ha) | Plant response rating, Foxtail, Giant ([4]; 500 g ai/ha) | Plant response rating, Ragweed ([5]; 125 g ai/ha) | Plant response rating, Ragweed ([5]; 500 g ai/ha) | Plant response rating, Sedge, Umbrella (0 to 100 scale, 0 is no effect, 100 is complete control) [6] | Plant response rating, Kochia (kochia (Kochia scoparia) [7]; 125 g ai/ha) | Plant response rating, Kochia (kochia (Kochia scoparia) [7]; 500 g ai/ha) | Plant response rating, Ryegrass, Italian ([8]; 125 g ai/ha) | Plant response rating, Ryegrass, Italian ([8]; 500 g ai/ha) | Plant response rating, Kochia (kochia (Kochia scoparia) [9]; 125 g ai/ha) | Plant response rating, Kochia (kochia (Kochia scoparia) [9]; 500 g ai/ha) | Plant response rating, Blackgrass ([10]; 125 g ai/ha) | Plant response rating, Blackgrass ([10]; 500 g ai/ha) | Plant response rating, Pigweed ([11]; 125 g ai/ha) | Plant response rating, Pigweed ([11]; 500 g ai/ha) | other results
1 | CC[C@H](COc1cc(C)cc(C)c1)Nc1ncc(C(F)(F)F)c(N)n1 [Compound 27] | 0 | 0 | 0 | 0 | 20 | 20 | 90 | 20 | 90 | 50 | 0 | 70 | 30 | 80 | 0 | 40 | 10 | 50 | 60 | 90 | Plant response rating, Corn (corn (Zea mays); 125 g ai/ha): 0; Plant response rating, Corn (corn (Zea mays); 500 g ai/ha): 20; Plant response rating, Galium ([12]; 125 g ai/ha): 90; Plant response rating, Galium ([12]; 500 g ai/ha): 90; Plant response rating, Pigweed ([13]; 125 g ai/ha): 10; Plant response rating, Pigweed ([13]; 500 g ai/ha): 80; Plant response rating, Barnyardgrass (0 to 100 scale, 0 is no effect, 100 is complete control) [14]: 0; Plant response rating, Barnyardgrass ([15]; 125 g ai/ha): 0; Plant response rating, Barnyardgrass ([15]; 500 g ai/ha): 20; Plant response rating, Ragweed ([16]; 125 g ai/ha): 70; Plant response rating, Ragweed ([16]; 500 g ai/ha): 90; Plant response rating, Foxtail, Giant ([17]; 125 g ai/ha): 0; Plant response rating, Foxtail, Giant ([17]; 500 g ai/ha): 20; Plant response rating, Barnyardgrass ([18]; 125 g ai/ha): 10; Plant response rating, Barnyardgrass ([18]; 500 g ai/ha): 90; Plant response rating, Rice (0 to 100 scale, 0 is no effect, 100 is complete control) (rice (Oryza sativa)): 0
2 | C[C@@H](Nc1ncc(C(F)(F)F)c(N)n1)c1cc2ccc(Cl)cc2o1 [Compound 29] | 0 | 0 | 10 | 0 | 0 | 60 | 90 | 20 | 90 | 0 | 50 | 90 | 20 | 70 | 0 | 80 | 0 | 10 | 100 | 100 | Plant response rating, Corn (corn (Zea mays); 125 g ai/ha): 0; Plant response rating, Corn (corn (Zea mays); 500 g ai/ha): 10; Plant response rating, Galium ([12]; 125 g ai/ha): 80; Plant response rating, Galium ([12]; 500 g ai/ha): 100; Plant response rating, Pigweed ([13]; 125 g ai/ha): 90; Plant response rating, Pigweed ([13]; 500 g ai/ha): 100; Plant response rating, Barnyardgrass (0 to 100 scale, 0 is no effect, 100 is complete control) [14]: 0; Plant response rating, Barnyardgrass ([15]; 125 g ai/ha): 20; Plant response rating, Barnyardgrass ([15]; 500 g ai/ha): 80; Plant response rating, Ragweed ([16]; 125 g ai/ha): 20; Plant response rating, Ragweed ([16]; 500 g ai/ha): 80; Plant response rating, Foxtail, Giant ([17]; 125 g ai/ha): 0; Plant response rating, Foxtail, Giant ([17]; 500 g ai/ha): 50; Plant response rating, Barnyardgrass ([18]; 125 g ai/ha): 0; Plant response rating, Barnyardgrass ([18]; 500 g ai/ha): 90; Plant response rating, Rice (0 to 100 scale, 0 is no effect, 100 is complete control) (rice (Oryza sativa)): 0
